Consider one compound from patent US10047041B2, “Amino-phenyl-sulfonyl-acetate derivatives and use thereof” (CJ Healthcare Corporation, priority 2014, dated 2018).

The subject of this assay is ICR mice. Description: Oral glucose tolerance test (OGTT) in ICR mice. In kind it is in vivo. Conditions: normal fasted ICR mice; oral 50, 20, 5 and 1 mg/kg in 0.5% methylcellulose; glucose 2 g/kg; student's t-test p<0.05. The procedure:
In order to evaluate the ability to control blood glucose in the body for the compound according to the present invention, an oral glucose tolerance test was conducted using ICR mice. The day before the test, normal ICR mice were separated into four per group, and were fasted for at least 16 hours. The body weight of each mouse was measured and recorded in the morning on the day of the test; The compound was prepared in a concentration of 5 mg/mL in 0.5% methylcellulose such that it could be administered at a dose of 50 mg/kg, and was then further diluted to be in concentrations of […] and administered at the same volume such that it can be administered at doses of 20 mg/kg, 5 mg/kg, and 1 mg/kg. Glucose was dissolved in drinking water and prepared in a concentration of 200 mg/mL such that it could be administered at a dose of 2 g/kg. Before administering the compounds, a small amount of blood of the mice was drawn from the caudal vein, and blood glucose was measured using ACCU-CHEK Active (Art. No. 2248891001), a blood glucose meter, and recorded. A solvent (0.5% MC) as a vehicle and the compounds prepared above were administered to all mice at a dose of 10 mL per 1 kg of body weight using a sonde. Glucose was further administered, and the blood glucose was measured in each mouse after 0.5 hours, 1 hour, and 2 hours. […]

With `Cc1ccccc1-c1cccc(CNc2ccc(S(=O)(=O)CC(=O)O)cc2)c1` [Example 1, 2-(4-((2′-methyl-biphenyl-3-yl)methylamino)phenylsulfonyl)acetic acid], the “effect of lowering blood glucose (glucose AUC0-2 hr after glucose administration)” value is reported as “significant effect of lowering blood glucose”.
